Tests used:
Assay type in all cases: in vivo
[1] = system: pigweed (Amaranthus retroflexus); assay: Test A postemergence, visual plant response rating
How it was run: (§1)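 Preemergence: seeds in loam/sand blend given directed soil spray of compound in non-phytotoxic solvent with surfactant. Postemergence: plants 2–10 cm, one- to two-leaf stage, sprayed with same formulation. Visual injury rated vs untreated controls after ~10 days in greenhouse, 0 (no effect) to 100 (complete control).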

kochia (Kochia scoparia) [2] = assay: Test A postemergence, visual plant response rating
How it was run: as §1

corn (Zea mays) = assay: Test A postemergence, visual plant response rating
How it was run: as §1

[3] = system: Italian ryegrass (Lolium multiflorum); assay: Test A postemergence, visual plant response rating
How it was run: as §1

[4] = system: wheat (Triticum aestivum); assay: Test A postemergence, visual plant response rating
How it was run: as §1

[5] = system: barnyardgrass (Echinochloa crus-galli); assay: Test A postemergence, visual plant response rating
How it was run: as §1

[6] = system: foxtail, giant (giant foxtail, Setaria faberii); assay: Test A postemergence, visual plant response rating
How it was run: as §1

[7] = system: blackgrass (Alopecurus myosuroides); assay: Test A postemergence, visual plant response rating
How it was run: as §1

[8] = system: ragweed (common ragweed, Ambrosia elatior); assay: Test A postemergence, visual plant response rating
How it was run: as §1

[9] = system: galium (catchweed bedstraw, Galium aparine); assay: Test A postemergence, visual plant response rating
How it was run: as §1

[10] = system: pigweed (Amaranthus retroflexus); assay: Test A preemergence, visual plant response rating
How it was run: as §1

kochia (Kochia scoparia) [11] = assay: Test A preemergence, visual plant response rating
How it was run: as §1

[12] = system: Italian ryegrass (Lolium multiflorum); assay: Test A preemergence, visual plant response rating
How it was run: as §1

[13] = system: barnyardgrass (Echinochloa crus-galli); assay: Test A preemergence, visual plant response rating
How it was run: as §1

[14] = system: foxtail, giant (giant foxtail, Setaria faberii); assay: Test A preemergence, visual plant response rating
How it was run: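 Ratings use a 0–100 visual scale (100 = complete control) against untreated controls, scored about 10 days after greenhouse treatment. Test chemicals were formulated in surfactant-containing non-phytotoxic solvent and applied either as soil spray after planting (preemergence) or onto one- to two-leaf, 2–10 cm plants (postemergence).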

[15] = system: ragweed (common ragweed, Ambrosia elatior); assay: Test A preemergence, visual plant response rating
How it was run: as §1

rice (Oryza sativa) = assay: Test B flooded paddy test, visual plant response rating; conditions: 250 g ai/ha, Flood, applied to paddy water, 2-leaf stage, evaluated after 13 to 15 days
How it was run: (§2)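 Greenhouse paddy conditions applied: two-leaf plants, a 3 cm flood above the soil surface maintained throughout, and compound added to the water rather than the foliage. Plants were judged visually against controls at 13 to 15 days.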

[16] = system: barnyardgrass (Echinochloa crus-galli); assay: as above; conditions: 250 g ai/ha, Flood, applied to paddy water, 2-leaf stage, evaluated after 13 to 15 days
How it was run: as §2

[17] = system: sedge, umbrella (small-flower umbrella sedge, Cyperus difformis); assay: as above; conditions: 250 g ai/ha, Flood, applied to paddy water, 2-leaf stage, evaluated after 13 to 15 days
How it was run: as §2

[18] = system: ducksalad (Heteranhera limosa); assay: as above; conditions: 250 g ai/ha, Flood, applied to paddy water, 2-leaf stage, evaluated after 13 to 15 days
How it was run: as §2

[19] = 500 g ai/ha, postemergence, 0 is no effect, 100 is complete control
[20] = Postemergence, 125 g ai/ha, 0 to 100 scale (0 no effect, 100 complete control)
[21] = 125 g ai/ha, preemergence, 0 to 100 scale, 0 no effect, 100 complete control
[22] = 500 g ai/ha Preemergence, approx. 10 days

CON=C(c1cccc(C(F)(F)F)c1Cl)c1c(O)c(C)nn(C)c1=O [Compound 102]
Pigweed plant response rating (0 to 100 scale) [1, 19]: 40 | Pigweed plant response rating [1, 20]: 20 | Kochia plant response rating (0 to 100 scale) (kochia (Kochia scoparia) [2]; [19]): 20 | Kochia plant response rating (kochia (Kochia scoparia) [2]; [20]): 20 | Corn plant response rating (0 to 100 scale) (corn (Zea mays); [19]): 0 | Corn plant response rating (corn (Zea mays); [20]): 0 | Ryegrass, Italian plant response rating (0 to 100 scale) [3, 19]: 30 | Ryegrass, Italian plant response rating [3, 20]: 0 | Wheat plant response rating (0 to 100 scale) [4, 19]: 30 | Wheat plant response rating [4, 20]: 0 | Barnyardgrass plant response rating (0 to 100 scale) [5, 19]: 30 | Barnyardgrass plant response rating [5, 20]: 20 | Foxtail, Giant plant response rating (0 to 100 scale) [6, 19]: 30 | Foxtail, Giant plant response rating [6, 20]: 10 | Blackgrass plant response rating (0 to 100 scale) [7, 19]: 30 | Blackgrass plant response rating [7, 20]: 0 | Ragweed plant response rating (0 to 100 scale) [8, 19]: 30 | Ragweed plant response rating [8, 20]: 10 | Galium plant response rating (0 to 100 scale) [9, 19]: 70 | Galium plant response rating [9, 20]: 40 | Pigweed plant response rating [10, 21]: 0 | Pigweed plant response rating (0 to 100 scale) [10, 22]: 10 | Kochia plant response rating (kochia (Kochia scoparia) [11]; [21]): 0 | Kochia plant response rating (0 to 100 scale) (kochia (Kochia scoparia) [11]; [22]): 0 | Ryegrass, Italian plant response rating [12, 21]: 20 | Ryegrass, Italian plant response rating (0 to 100 scale) [12, 22]: 50 | Barnyardgrass plant response rating [13, 21]: 0 | Barnyardgrass plant response rating (0 to 100 scale) [13, 22]: 40 | Foxtail, Giant plant response rating [14, 21]: 0 | Foxtail, Giant plant response rating (0 to 100 scale) [14, 22]: 30 | Ragweed plant response rating [15, 21]: 20 | Ragweed plant response rating (0 to 100 scale) [15, 22]: 40 | Plant response rating, Rice (0 to 100 scale, 0 is no effect, 100 is complete control) (rice (Oryza sativa)): 0 | Plant response rating, Barnyardgrass (0 to 100 scale, 0 is no effect, 100 is complete control) [16]: 0 | Plant response rating, Sedge, Umbrella (0 to 100 scale, 0 is no effect, 100 is complete control) [17]: 0 | Plant response rating, Ducksalad (0 to 100 scale, 0 is no effect, 100 is complete control) [18]: 0
